Patent US12043612B2, “Methods of manufacturing a bifunctional compound, ultrapure forms of the bifunctional compound, and dosage forms comprising the same” (Arvinas Operations, Inc., priority 2020, dated 2024)

Test: Exploratory stability study on Compound A drug substance (HPLC, water content, XRPD)
Assay type: physicochemical
Set-up: Water Content: unit: wt %
Description: This is a reverse phase high performance liquid chromatography (HPLC) method devised to determine the assay and impurity profile of Compound A for release and stability testing. The method was qualified for its intended uses. Forced degradation studies were performed and used to qualify this method as stability indicating. The HPLC parameters are listed below in Table 6.
An exploratory stability study on Compound A is on-going. The stability of Compound A will be studied at 5° C., 25° C./60% RH, and 40° C./75% RH with sampling points at 1, 2, 3, and 6 months. Samples will be analyzed using the stability indicating method TEST-05187 (high performance liquid chromatography (HPLC)).
The critical quality attributes of the drug substance Compound A that will be monitored are appearance, purity, assay (wt %), impurities, water content, and x-ray powder diffraction (XRPD). The container and closure system for the stability study consists of double plastic (PE) bags placed inside an high-density polyethylene (HDPE) container.

[1] = Initial Date (about 3 months after date of manufacture)
[2] = Storage at 5° C. +/− 3° C., Initial Date + 1 Month
[3] = Storage at 5° C. +/− 3° C., Initial Date + 2 Months
[4] = Storage at 25° C. ± 2° C./60% RH ± 5%, Initial Date + 1 Month
[5] = Storage at 25° C. ± 2° C./60% RH ± 5%, Initial Date + 2 Months
[6] = Storage at 40° C. ± 2° C./75% RH ± 5%, Initial Date + 1 Month
[7] = Storage at 40° C. ± 2° C./75% RH ± 5%, Initial Date + 2 Months

## N#Cc1ccc(O[C@H]2CC[C@H](NC(=O)c3ccc(N4CCC(CN5CCN(c6cc7c(cc6F)C(=O)N(C6CCC(=O)NC6=O)C7=O)CC5)CC4)nn3)CC2)cc1Cl (stereo partly shown) [Compound A, N-[(1r,4r)-4-(3-chloro-4-cyanophenoxy)cyclohexyl]-6-[4-({4-[2-(2,6-dioxopiperidin-3-yl)-6-fluoro-1,3-dioxo-2,3-dihydro-1H-isoindol-5-yl]piperazin-1-yl}methyl)piperidin-1-yl]pyridazine-3-carboxamide]
At Date of Manufacture
  Appearance: Yellow
  HPLC Assay (wt %): 97.7 wt %
  HPLC Impurities (%) RRT 0.50 (Intermediate 5): 0.06%
  HPLC Impurities (%) RRT 0.89: 0.07%
  HPLC Impurities (%) RRT 0.90: ND (ND = <_0.02%)
  HPLC Impurities (%) RRT 0.92: 0.07%
  HPLC Impurities (%) RRT 0.94: ND (ND = <_0.02%)
  HPLC Impurities (%) RRT 0.96 (Intermediate 2): 0.16%
  HPLC Impurities (%) RRT 1.02: 0.39%
  HPLC Impurities (%) RRT 1.04 (Intermediate 3): 0.12%
  HPLC Impurities (%) RRT 1.05 (Impurity 1): <QL (QL = 0.05%)
  HPLC Impurities (%) RRT 1.07: 0.19%
  HPLC Impurities (%) RRT 1.23: 0.06%
  HPLC Impurities (%) RRT 1.32: ND (ND = <_0.02%)
  HPLC Impurities (%) RRT 1.36 (Intermediate 9): 0.05%
  HPLC Impurities (%) RRT 1.39: 0.67%
  HPLC Impurities (%) RRT 1.54: ND (ND = <_0.02%)
  HPLC Purity (%): 98.0%
  Total Impurities (%): 2.0%
  Water Content: 0.27
  Water Content (wt %): 0.27 wt %
  XRPD: Crystalline
[1]
  Appearance: Yellow
  HPLC Assay (wt %): 99.5 wt %
  HPLC Impurities (%) RRT 0.50 (Intermediate 5): 0.06%
  HPLC Impurities (%) RRT 0.89: 0.08%
  HPLC Impurities (%) RRT 0.90: <QL (QL = 0.05%)
  HPLC Impurities (%) RRT 0.92: 0.06%
  HPLC Impurities (%) RRT 0.94: ND (ND = <_0.02%)
  HPLC Impurities (%) RRT 0.96 (Intermediate 2): 0.18%
  HPLC Impurities (%) RRT 1.02: 0.38%
  HPLC Impurities (%) RRT 1.04 (Intermediate 3): 0.11%
  HPLC Impurities (%) RRT 1.05 (Impurity 1): ND (ND = <_0.02%)
  HPLC Impurities (%) RRT 1.07: 0.15%
  HPLC Impurities (%) RRT 1.23: 0.06%
  HPLC Impurities (%) RRT 1.32: ND (ND = <_0.02%)
  HPLC Impurities (%) RRT 1.36 (Intermediate 9): ND (ND = <_0.02%)
  HPLC Impurities (%) RRT 1.39: 0.45%
  HPLC Impurities (%) RRT 1.54: <QL (QL = 0.05%)
  HPLC Purity (%): 98.4%
  Total Impurities (%): 1.3%
  Water Content: 0.86
  Water Content (wt %): 0.86 wt %
  XRPD: Crystalline
[2]
  Appearance: Yellow
  HPLC Assay (wt %): 97.4 wt %
  HPLC Impurities (%) RRT 0.50 (Intermediate 5): 0.05%
  HPLC Impurities (%) RRT 0.89: 0.07%
  HPLC Impurities (%) RRT 0.90: <QL (QL = 0.05%)
  HPLC Impurities (%) RRT 0.92: <QL (QL = 0.05%)
  HPLC Impurities (%) RRT 0.94: ND (ND = <_0.02%)
  HPLC Impurities (%) RRT 0.96 (Intermediate 2): 0.18%
  HPLC Impurities (%) RRT 1.02: 0.33%
  HPLC Impurities (%) RRT 1.04 (Intermediate 3): 0.09%
  HPLC Impurities (%) RRT 1.05 (Impurity 1): ND (ND = <_0.02%)
  HPLC Impurities (%) RRT 1.07: 0.15%
  HPLC Impurities (%) RRT 1.23: 0.05%
  HPLC Impurities (%) RRT 1.32: ND (ND = <_0.02%)
  HPLC Impurities (%) RRT 1.36 (Intermediate 9): <QL (QL = 0.05%)
  HPLC Impurities (%) RRT 1.39: 0.58%
  HPLC Impurities (%) RRT 1.54: <QL (QL = 0.05%)
  HPLC Purity (%): 98.4%
  Total Impurities (%): 1.5%
  Water Content (wt %): 0.85 wt %
  XRPD: Crystalline
[3]
  Appearance: Yellow
  HPLC Assay (wt %): 97.4 wt %
  HPLC Impurities (%) RRT 0.50 (Intermediate 5): 0.05%
  HPLC Impurities (%) RRT 0.89: 0.07%
  HPLC Impurities (%) RRT 0.90: <QL (QL = 0.05%)
  HPLC Impurities (%) RRT 0.92: 0.06%
  HPLC Impurities (%) RRT 0.94: <QL (QL = 0.05%)
  HPLC Impurities (%) RRT 0.96 (Intermediate 2): 0.17%
  HPLC Impurities (%) RRT 1.02: 0.29%
  HPLC Impurities (%) RRT 1.04 (Intermediate 3): <QL (QL = 0.05%)
  HPLC Impurities (%) RRT 1.05 (Impurity 1): ND (ND = <_0.02%)
  HPLC Impurities (%) RRT 1.07: 0.15%
  HPLC Impurities (%) RRT 1.23: <QL (QL = 0.05%)
  HPLC Impurities (%) RRT 1.32: 0.05%
  HPLC Impurities (%) RRT 1.36 (Intermediate 9): <QL (QL = 0.05%)
  HPLC Impurities (%) RRT 1.39: 0.61%
  HPLC Impurities (%) RRT 1.54: <QL (QL = 0.05%)
  HPLC Purity (%): 98.4%
  Total Impurities (%): 1.5%
  Water Content (wt %): 1.0 wt %
  XRPD: Crystalline
[4]
  Appearance: Yellow
  HPLC Assay (wt %): 97.3 wt %
  HPLC Impurities (%) RRT 0.50 (Intermediate 5): 0.05%
  HPLC Impurities (%) RRT 0.89: 0.07%
  HPLC Impurities (%) RRT 0.90: <QL (QL = 0.05%)
  HPLC Impurities (%) RRT 0.92: 0.07%
  HPLC Impurities (%) RRT 0.94: ND (ND = <0.02%)
  HPLC Impurities (%) RRT 0.96 (Intermediate 2): 0.18%
  HPLC Impurities (%) RRT 1.02: 0.34%
  HPLC Impurities (%) RRT 1.04 (Intermediate 3): 0.07%
  HPLC Impurities (%) RRT 1.05 (Impurity 1): ND (ND = <0.02%)
  HPLC Impurities (%) RRT 1.07: 0.15%
  HPLC Impurities (%) RRT 1.23: 0.05%
  HPLC Impurities (%) RRT 1.32: ND (ND = <0.02%)
  HPLC Impurities (%) RRT 1.36 (Intermediate 9): <QL (QL = 0.05%)
  HPLC Impurities (%) RRT 1.39: 0.57%
  HPLC Impurities (%) RRT 1.54: <QL (QL = 0.05%)
  HPLC Purity (%): 98.3%
  Total Impurities (%): 1.6%
  Water Content: 0.93
  XRPD: Crystalline
[5]
  Appearance: Yellow
  HPLC Assay (wt %): 97.5 wt %
  HPLC Impurities (%) RRT 0.50 (Intermediate 5): 0.05%
  HPLC Impurities (%) RRT 0.89: 0.07%
  HPLC Impurities (%) RRT 0.90: <QL (QL = 0.05%)
  HPLC Impurities (%) RRT 0.92: 0.06%
  HPLC Impurities (%) RRT 0.94: <QL (QL = 0.05%)
  HPLC Impurities (%) RRT 0.96 (Intermediate 2): 0.17%
  HPLC Impurities (%) RRT 1.02: 0.28%
  HPLC Impurities (%) RRT 1.05 (Impurity 1): ND (ND = <0.02%)
  HPLC Impurities (%) RRT 1.07: 0.15%
  HPLC Impurities (%) RRT 1.23: 0.05%
  HPLC Impurities (%) RRT 1.32: <QL (QL = 0.05%)
  HPLC Impurities (%) RRT 1.36 (Intermediate 9): ND (ND = <0.02%)
  HPLC Impurities (%) RRT 1.39: 0.65%
  HPLC Impurities (%) RRT 1.54: <QL (QL = 0.05%)
  HPLC Purity (%): 98.3%
  Total Impurities (%): 1.5%
  Water Content: 1.2
  XRPD: Crystalline
[6]
  Appearance: Yellow
  HPLC Assay (wt %): 97.3 wt %
  HPLC Impurities (%) RRT 0.50 (Intermediate 5): 0.05%
  HPLC Impurities (%) RRT 0.89: 0.06%
  HPLC Impurities (%) RRT 0.90: <QL (QL = 0.05%)
  HPLC Impurities (%) RRT 0.92: 0.07%
  HPLC Impurities (%) RRT 0.94: ND (ND = <0.02%)
  HPLC Impurities (%) RRT 0.96 (Intermediate 2): 0.18%
  HPLC Impurities (%) RRT 1.02: 0.34%
  HPLC Impurities (%) RRT 1.04 (Intermediate 3): 0.08%
  HPLC Impurities (%) RRT 1.05 (Impurity 1): ND (ND = <0.02%)
  HPLC Impurities (%) RRT 1.07: 0.14%
  HPLC Impurities (%) RRT 1.23: 0.05%
  HPLC Impurities (%) RRT 1.32: ND (ND = <0.02%)
  HPLC Impurities (%) RRT 1.36 (Intermediate 9): <QL (QL = 0.05%)
  HPLC Impurities (%) RRT 1.39: 0.58%
  HPLC Impurities (%) RRT 1.54: <QL (QL = 0.05%)
  HPLC Purity (%): 98.3%
  Total Impurities (%): 1.6%
  Water Content: 1.0
  XRPD: Crystalline
[7]
  Appearance: Yellow
  HPLC Assay (wt %): 97.2 wt %
  HPLC Impurities (%) RRT 0.50 (Intermediate 5): 0.06%
  HPLC Impurities (%) RRT 0.89: 0.06%
  HPLC Impurities (%) RRT 0.90: <QL (QL = 0.05%)
  HPLC Impurities (%) RRT 0.92: 0.07%
  HPLC Impurities (%) RRT 0.94: <QL (QL = 0.05%)
  HPLC Impurities (%) RRT 0.96 (Intermediate 2): 0.18%
  HPLC Impurities (%) RRT 1.02: 0.28%
  HPLC Impurities (%) RRT 1.04 (Intermediate 3): <QL (QL = 0.05%)
  HPLC Impurities (%) RRT 1.05 (Impurity 1): ND (ND = <0.02%)
  HPLC Impurities (%) RRT 1.07: 0.14%
  HPLC Impurities (%) RRT 1.23: 0.06%
  HPLC Impurities (%) RRT 1.32: <QL (QL = 0.05%)
  HPLC Impurities (%) RRT 1.36 (Intermediate 9): ND (ND = <0.02%)
  HPLC Impurities (%) RRT 1.39: 0.63%
  HPLC Impurities (%) RRT 1.54: <QL (QL = 0.05%)
  HPLC Purity (%): 98.3%
  Total Impurities (%): 1.5%
  Water Content: 1.3
  XRPD: Crystalline
After 2 months at all temperature stations
  change in impurities and solid properties: no increase in impurities nor change in solid properties
After 5 months from the date of manufacture
  change in impurities and solid properties: no increase in impurities or change in solid properties
Stability study, all temperature stations
  change in water content: small increase in the water content
